What follows are compounds tested on HT1080 cells (assay: Cell viability CCK-8 assay). Settings: Homo sapiens, HT-1080, CCK-8, 48 h, read-out: IC50 (cytotoxicity).
Assay type: cell-based, human
Experimental: To determine whether GPX4 degradation following treatment with HSP70‐PROTACs triggers cancer cell ferroptosis, we initially assessed the viability of HT1080 cells using the CCK‐8 assay after treatment with various concentrations of the tested compounds for 48 h. GPX4 inhibitor ML162, HSP70 inhibitor apoptozole, and two GPX4 non‐degradable HSP70‐PROTAC molecules, GDAz‐Neg1 and GDAz‐Neg2, were selected as controls. […] This remarkable activity might partly be ascribed to the high cell permeability conferred by the piperazine ring. […] We speculated that the potent anti‐proliferative activity of GDAz‐Neg2 may be attributed to the GPX4 inhibition.
The compounds under investigation were initially dissolved in dimethyl sulfoxide (DMSO) to generate stock solutions with a concentration of 10 mM. HT1080 cells or other tested cells were seeded in 96‐well plates at a density of 3000–5000 cells well^−1 and cultured at 37 °C. Following a 24‐h incubation period, the tested compounds were added to the wells at various concentrations (the DMSO stock solutions of all the tested compounds were diluted with culture medium to obtain the designated concentration containing a final concentration of DMSO less than 0.5% (v/v)). The cells were then cultured for an additional 48 or 72 h. Cell Counting Kit 8 (CCK‐8) assay was conducted to examine the effects of the tested compounds on cell viability, and the absorbance was measured at a wavelength of 450 nm. The IC50 values were determined utilizing GraphPad Prism software through nonlinear regression analysis. All experiments were independently repeated at least three times.

**Q.** `COc1ccc(-c2nc(-c3cc(C(F)(F)F)cc(C(F)(F)F)c3)n(Cc3ccc(C(=O)NCCNC(=O)Cn4cc(COc5ccc(N(C(=O)CCl)C(C(=O)NCCc6ccccc6)c6cccs6)cc5Cl)nn4)cc3)c2-c2ccc(OC)cc2)cc1` (stereo not shown) [GDAz-6, 4-((2-(3,5-bis(trifluoromethyl)phenyl)-4,5-bis(4-methoxyphenyl)-1H-imidazol-1-yl)methyl)-N-(2-(2-(4-((2-chloro-4-(2-chloro-N-(2-oxo-2-(phenethylamino)-1-(thiophen-2-yl)ethyl)acetamido)phenoxy)methyl)-1H-1,2,3-triazol-1-yl)acetamido)ethyl)benzamide] was tested. Which IC50 did it give?
**A.** The IC50 was 350 ± 80 nM.

**Q.** How did the IC50 turn out when `COc1ccc(-c2nc(-c3cc(C(F)(F)F)cc(C(F)(F)F)c3)n(Cc3ccc(C(=O)NCCCNC(=O)Cn4cc(COc5ccc(N(C(=O)CCl)C(C(=O)NCCc6ccccc6)c6cccs6)cc5Cl)nn4)cc3)c2-c2ccc(OC)cc2)cc1` (stereo not shown) [GDAz-7, 4-((2-(3,5-bis(trifluoromethyl)phenyl)-4,5-bis(4-methoxyphenyl)-1H-imidazol-1-yl)methyl)-N-(3-(2-(4-((2-chloro-4-(2-chloro-N-(2-oxo-2-(phenethylamino)-1-(thiophen-2-yl)ethyl)acetamido)phenoxy)methyl)-1H-1,2,3-triazol-1-yl)acetamido)propyl)benzamide] was run?
**A.** Its IC50 is 530 ± 70 nM.

**Q.** With `COc1ccc(-c2nc(-c3cc(C(F)(F)F)cc(C(F)(F)F)c3)n(Cc3ccc(C(=O)NCCCCNC(=O)Cn4cc(COc5ccc(N(C(=O)CCl)C(C(=O)NCCc6ccccc6)c6cccs6)cc5Cl)nn4)cc3)c2-c2ccc(OC)cc2)cc1` (stereo not shown) [GDAz-8, 4-((2-(3,5-bis(trifluoromethyl)phenyl)-4,5-bis(4-methoxyphenyl)-1H-imidazol-1-yl)methyl)-N-(4-(2-(4-((2-chloro-4-(2-chloro-N-(2-oxo-2-(phenethylamino)-1-(thiophen-2-yl)ethyl)acetamido)phenoxy)methyl)-1H-1,2,3-triazol-1-yl)acetamido)butyl)benzamide] as the compound, how does the IC50 read?
**A.** The IC50 was 130 ± 40 nM.

**Q.** How did the IC50 turn out when `COc1ccc(-c2nc(-c3cc(C(F)(F)F)cc(C(F)(F)F)c3)n(Cc3ccc(C(=O)NCCCCCNC(=O)Cn4cc(COc5ccc(N(C(=O)CCl)C(C(=O)NCCc6ccccc6)c6cccs6)cc5Cl)nn4)cc3)c2-c2ccc(OC)cc2)cc1` (stereo not shown) [GDAz-9, 4-((2-(3,5-bis(trifluoromethyl)phenyl)-4,5-bis(4-methoxyphenyl)-1H-imidazol-1-yl)methyl)-N-(5-(2-(4-((2-chloro-4-(2-chloro-N-(2-oxo-2-(phenethylamino)-1-(thiophen-2-yl)ethyl)acetamido)phenoxy)methyl)-1H-1,2,3-triazol-1-yl)acetamido)pentyl)benzamide] was run?
**A.** Its IC50 is 140 ± 20 nM.

**Q.** With `COc1ccc(-c2nc(-c3cc(C(F)(F)F)cc(C(F)(F)F)c3)n(Cc3ccc(C(=O)NCCCCCCNC(=O)Cn4cc(COc5ccc(N(C(=O)CCl)C(C(=O)NCCc6ccccc6)c6cccs6)cc5Cl)nn4)cc3)c2-c2ccc(OC)cc2)cc1` (stereo not shown) [GDAz-10, 4-((2-(3,5-bis(trifluoromethyl)phenyl)-4,5-bis(4-methoxyphenyl)-1H-imidazol-1-yl)methyl)-N-(6-(2-(4-((2-chloro-4-(2-chloro-N-(2-oxo-2-(phenethylamino)-1-(thiophen-2-yl)ethyl)acetamido)phenoxy)methyl)-1H-1,2,3-triazol-1-yl)acetamido)hexyl)benzamide] as the compound, how does the IC50 read?
**A.** The IC50 was greater than 30000 nM.

**Q.** Which IC50 does the source give for `COc1ccc(-c2nc(-c3cc(C(F)(F)F)cc(C(F)(F)F)c3)n(Cc3ccc(C(=O)NC4CCN(C(=O)Cn5cc(COc6ccc(N(C(=O)CCl)C(C(=O)NCCc7ccccc7)c7cccs7)cc6Cl)nn5)CC4)cc3)c2-c2ccc(OC)cc2)cc1` (stereo not shown) [GDAz-11, 4-((2-(3,5-bis(trifluoromethyl)phenyl)-4,5-bis(4-methoxyphenyl)-1H-imidazol-1-yl)methyl)-N-(1-(2-(4-((2-chloro-4-(2-chloro-N-(2-oxo-2-(phenethylamino)-1-(thiophen-2-yl)ethyl)acetamido)phenoxy)methyl)-1H-1,2,3-triazol-1-yl)acetyl)piperidin-4-yl)benzamide] here?
**A.** Its IC50 is greater than 30000 nM.

**Q.** Which IC50 does the source give for `COc1ccc(-c2nc(-c3cc(C(F)(F)F)cc(C(F)(F)F)c3)n(Cc3ccc(C(=O)NCC4CCN(C(=O)Cn5cc(COc6ccc(N(C(=O)CCl)C(C(=O)NCCc7ccccc7)c7cccs7)cc6Cl)nn5)CC4)cc3)c2-c2ccc(OC)cc2)cc1` (stereo not shown) [GDAz-12, 4-((2-(3,5-bis(trifluoromethyl)phenyl)-4,5-bis(4-methoxyphenyl)-1H-imidazol-1-yl)methyl)-N-((1-(2-(4-((2-chloro-4-(2-chloro-N-(2-oxo-2-(phenethylamino)-1-(thiophen-2-yl)ethyl)acetamido)phenoxy)methyl)-1H-1,2,3-triazol-1-yl)acetyl)piperidin-4-yl)methyl)benzamide] here?
**A.** The IC50 was greater than 30000 nM.

**Q.** Which IC50 does the source give for `COc1ccc(-c2nc(-c3cc(C(F)(F)F)cc(C(F)(F)F)c3)n(Cc3ccc(C(=O)NCCC4CCN(C(=O)Cn5cc(COc6ccc(N(C(=O)CCl)C(C(=O)NCCc7ccccc7)c7cccs7)cc6Cl)nn5)CC4)cc3)c2-c2ccc(OC)cc2)cc1` (stereo not shown) [GDAz-13, 4-((2-(3,5-bis(trifluoromethyl)phenyl)-4,5-bis(4-methoxyphenyl)-1H-imidazol-1-yl)methyl)-N-(2-(1-(2-(4-((2-chloro-4-(2-chloro-N-(2-oxo-2-(phenethylamino)-1-(thiophen-2-yl)ethyl)acetamido)phenoxy)methyl)-1H-1,2,3-triazol-1-yl)acetyl)piperidin-4-yl)ethyl)benzamide] here?
**A.** The IC50 was greater than 30000 nM.

**Q.** With `COc1ccc(-c2nc(-c3cc(C(F)(F)F)cc(C(F)(F)F)c3)n(Cc3ccc(C(=O)N4CCN(C(=O)Cn5cc(COc6ccc(N(C(=O)CCl)C(C(=O)NCCc7ccccc7)c7cccs7)cc6Cl)nn5)CC4)cc3)c2-c2ccc(OC)cc2)cc1` (stereo not shown) [GDAz-14, N-(4-((1-(2-(4-(4-((2-(3,5-bis(trifluoromethyl)phenyl)-4,5-bis(4-methoxyphenyl)-1H-imidazol-1-yl)methyl)benzoyl)piperazin-1-yl)-2-oxoethyl)-1H-1,2,3-triazol-4-yl)methoxy)-3-chlorophenyl)-2-chloro-N-(2-oxo-2-(phenethylamino)-1-(thiophen-2-yl)ethyl)acetamide] as the compound, how does the IC50 read?
**A.** Its IC50 is 120 nM.

**Q.** `NCCOCCOCCOCCn1cc(COc2ccc(N(C(=O)CCl)C(C(=O)NCCc3ccccc3)c3cccs3)cc2Cl)nn1` (stereo not shown) [GDAz-Neg1] was tested. Which IC50 did it give?
**A.** Its IC50 is 9100 ± 3800 nM.

**Q.** For `COc1ccc(-c2nc(-c3ccncc3)n(Cc3ccc(C(=O)NCCOCCOCCOCCn4cc(COc5ccc(N(C(=O)CCl)C(C(=O)NCCc6ccccc6)c6cccs6)cc5Cl)nn4)cc3)c2-c2ccc(OC)cc2)cc1` (stereo not shown) [GDAz-Neg2, 4-((4,5-bis(4-methoxyphenyl)-2-(pyridin-4-yl)-1H-imidazol-1-yl)methyl)-N-(2-(2-(2-(2-(4-((2-chloro-4-(2-chloro-N-(2-oxo-2-(phenethylamino)-1-(thiophen-2-yl)ethyl)acetamido)phenoxy)methyl)-1H-1,2,3-triazol-1-yl)ethoxy)ethoxy)ethoxy)ethyl)benzamide], which IC50 is on record?
**A.** The IC50 was 580 ± 150 nM.

These compounds were tested against T1, GPX4 (Homo sapiens, UniProt P36969) (assay: GPX4 degradation by western blot in HT1080 cells). Settings: HT1080 cells, 24 h, tested concentrations (Figure 4A).
T1 sequence (P36969 1-170 isoform P36969-2): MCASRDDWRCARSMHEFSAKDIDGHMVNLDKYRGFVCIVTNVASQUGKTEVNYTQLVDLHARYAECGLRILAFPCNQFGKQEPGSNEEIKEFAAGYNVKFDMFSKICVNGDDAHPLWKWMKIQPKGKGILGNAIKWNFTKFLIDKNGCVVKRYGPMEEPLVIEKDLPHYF
Assay type: cell-based
Set-up: determine the changes in the endogenous levels of GPX4 by western blot assay; endogenous in cells; host or cells: HT1080 fibrosarcoma cells, including siRNA-knockdown derivatives
Experimental: To evaluate the GPX4 degradation efficiency of the synthesized HSP70‐PROTACs GDAz‐1–14, we first selected ferroptosis‐sensitive HT1080 fibrosarcoma cells (highly‐expressing GPX4) treated with different concentrations (0.1, 0.3, 1, and 3 µM) of these chimeras to determine the changes in the endogenous levels of GPX4 by western blot assay after 24 h treatment. […] This finding underscores the crucial role of the linker in HSP70‐PROTAC‐mediated protein degradation. […] In the case of alkyl chain derivatives (GDAz‐6–10), elongating the length of the linker generally led to a decreased GPX4 degrading activity. […] Thus, GDAz‐3 was selected for further evaluation.
Cells were seeded at a density of 4 × 10^5 cells well^−1 in 6‐well plates and allowed to incubate overnight. Cells were incubated with the indicated treatments. Thereafter, the cells were collected and lysed with RIPA buffer containing serine protease and phosphatase inhibitors for 30 min on ice. Proteins were quantified by using a BCA protein assay kit (Beyotime). Subsequently, SDS‐PAGE sample loading buffer was added, and the mixture was heated in a 100 °C metal bath for 10 min to denature the proteins. Protein samples from each group were separated by SDS‐PAGE gel and transferred to a PVDF membrane. After blocking with 5% skim milk for 1 h at room temperature, primary antibodies (GPX4: abcam (#ab125066, 1:1000); Hsp70: abcam (#ab2787, 1:1000); CHIP: HUABIO (#ST7108, 1:1000); UpingBio Technology Co., Ltd. (BRD4, #YP‐Ab‐18034, 1:1000; BAG‐1, #YP‐Ab‐00575, 1:1000); GAPDH: Proteintech (#60004‐1‐Ig, 1:50 000)) were used and incubated at 4 °C overnight on a rotary shaker. After washing the membranes with TBST buffer five times, the membranes were incubated with a second antibody (Cell Signaling Technology, #7074S, 1:1000 and #7076S, 1:1000) at room temperature for 2 h. Ultimately, the membrane was washed five times, and the antibody‐protein complexes were visualized using an ECL luminescence reagent (Biosharp, Shanghai, China). The relative intensities of the bands were analyzed by ImageJ and normalized to a loading control.

**Q.** Which “GPX4 degradation by negative control compounds” value does the source give for `NCCOCCOCCOCCn1cc(COc2ccc(N(C(=O)CCl)C(C(=O)NCCc3ccccc3)c3cccs3)cc2Cl)nn1` (stereo not shown) [GDAz-Neg1] here?
**A.** Its value is “none of the compounds effectively triggered GPX4 degradation”.

**Q.** For `COc1ccc(-c2nc(-c3ccncc3)n(Cc3ccc(C(=O)NCCOCCOCCOCCn4cc(COc5ccc(N(C(=O)CCl)C(C(=O)NCCc6ccccc6)c6cccs6)cc5Cl)nn4)cc3)c2-c2ccc(OC)cc2)cc1` (stereo not shown) [GDAz-Neg2, 4-((4,5-bis(4-methoxyphenyl)-2-(pyridin-4-yl)-1H-imidazol-1-yl)methyl)-N-(2-(2-(2-(2-(4-((2-chloro-4-(2-chloro-N-(2-oxo-2-(phenethylamino)-1-(thiophen-2-yl)ethyl)acetamido)phenoxy)methyl)-1H-1,2,3-triazol-1-yl)ethoxy)ethoxy)ethoxy)ethyl)benzamide], which “GPX4 degradation by negative control compounds” value is on record?
**A.** Its value is “none of the compounds effectively triggered GPX4 degradation”.

Source: publication PMC12948223, “HSP70 Interactome‐Mediated Proteolysis Targeting Chimera (HSP70‐PROTAC) for Ferroptosis‐Driven Cancer Treatment” (Advanced Science, 2025)
